# Measurements taken from patent US7868135B2, “Compositions of lipopeptide antibiotic derivatives and methods of use thereof” (priority 2003, dated 2011).
# Starred links: 1 amine or outer side, 2 acyl side, 3 side chain; linkers in the order of their positions; H or OH if unused. Positions of bridges follow the written chain, without caps; N, C: chain ends. Non-standard residues stand in square brackets, D forms with d. Residues, ends and D or L forms follow the SMILES beside them. ξ: configuration not given here. *: point of attachment. X35 = CC(C(N[*:1])C(=O)[*:2])N(Cc1ccc(O)cc1)Cc1ccc(O)cc1; Hexadecanesulfonyl = CCCCCCCCCCCCCCCCS(=O)(=O)*; X42 = CC(NC(=O)CNCc1ccccc1)C(N[*:1])C(=O)[*:2]; X22 = CC(NC(=O)[C@H](N)CO)C(N[*:1])C(=O)[*:2]; X45 = CCN(CC)CCC(=O)NC(C)C(N[*:1])C(=O)[*:2]; ξAbu(βξ-NH2) = CC(N[*:3])C(N[*:1])C(=O)[*:2]; X38 = CC(NC(=O)CCCN(C)C)C(N[*:1])C(=O)[*:2]; X23 = CC(NCc1ccc(O)cc1)C(N[*:1])C(=O)[*:2]; X36 = CC(NC(=O)CN(C)C)C(N[*:1])C(=O)[*:2]; X44 = CCNCC(=O)NC(C)C(N[*:1])C(=O)[*:2]; Pentadecanoyl = CCCCCCCCCCCCCCC(=O)*; ξAsp(βξ-Me) = CC(C(=O)O)C(N)C(=O)O; Palmitoyl = CCCCCCCCCCCCCCCC(=O)*; X1 = O=C(Cc1ccc(N[*:1])cc1)[*:2]; ξAbu(3ξ-NH2) = CC(N)C(N)C(=O)O; NH(CH2)11CH3 = CCCCCCCCCCCCN*; X19 = CCCCCCCCCCS(=O)(=O)*; Pip = O=C(O)[CH]1CCCCN1; ξD = NC(CC(=O)O)C(=O)O; ξPip = O=C(O)C1CCCCN1; CO = O=C([*:1])[*:2]; ξV = CC(C)C(N)C(=O)O; ξP = O=C(O)C1CCCN1
# Tested on: Staphylococcus aureus (MSSA)
# Settings: 24 h
# In short: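 Broth microdilution MIC per NCCLS M7-A6 with doubling serial dilutions, in cation-adjusted Mueller-Hinton broth supplemented with 0.625 mM calcium.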
row,MIC [µg/mL],SMILES
1,4,"CCCCCCCCCCCCCCC(=O)NC(CC(=O)O)C(=O)NC1C(=O)N2CCCCC2C(=O)NC(C(C)C(=O)O)C(=O)NC(CC(=O)O)C(=O)NCC(=O)NC(CC(=O)O)C(=O)NCC(=O)NC(C(C)NC(=O)[C@H](N)CO)C(=O)NC(C(C)C)C(=O)N2CCCC2C(=O)NC1C (stereo partly drawn) [Compound 262, C15-Amphomycin-(D-Ser)] (Pentadecanoyl-[ξD][ξAbu(βξ-NH2)][ξPip][ξAsp(βξ-Me)][ξD]G[ξD]G[X22][ξV][ξP]; lactam 2-C)"
2,32,"CCCCCCCCCCCCCCC(=O)NC(CC(=O)O)C(=O)NC1C(=O)N2CCCCC2C(=O)NC(C(C)C(=O)O)C(=O)NC(CC(=O)O)C(=O)NCC(=O)NC(CC(=O)O)C(=O)NCC(=O)NC(C(C)NC(=O)[C@H](N)Cc2ccc(O)cc2)C(=O)NC(C(C)C)C(=O)N2CCCC2C(=O)NC1C (stereo partly drawn) [Compound 263, C15-Amphomycin-(D-Tyr)]"
3,8,"CCCCCCCCCCCCCCC(=O)NC(CC(=O)O)C(=O)NC1C(=O)N2CCCCC2C(=O)NC(C(C)C(=O)O)C(=O)NC(CC(=O)O)C(=O)NCC(=O)NC(CC(=O)O)C(=O)NCC(=O)NC(C(C)NC(=O)[C@H](N)Cc2c[nH]c3ccccc23)C(=O)NC(C(C)C)C(=O)N2CCCC2C(=O)NC1C (stereo partly drawn) [Compound 264, C15-Amphomycin-(D-Trp)]"
4,8 to 16,"CCCCCCCCCCCCCCC(=O)NC(CC(=O)O)C(=O)NC1C(=O)N2CCCCC2C(=O)NC(C(C)C(=O)O)C(=O)NC(CC(=O)O)C(=O)NCC(=O)NC(CC(=O)O)C(=O)NCC(=O)NC(C(C)NCc2ccc(O)cc2)C(=O)NC(C(C)C)C(=O)N2CCCC2C(=O)NC1C (stereo not drawn) [Compound 266, C15-Amphomycin-9-(4-Hydroxybenzyl)] (Pentadecanoyl-D[ξAbu(βξ-NH2)][Pip][ξAsp(βξ-Me)]DGDG[X23]VP; lactam 2-C; configuration not given here)"
5,8,"CCCCCCCCCCCCCCC(=O)NC(CC(=O)O)C(=O)NC1C(=O)N2CCCCC2C(=O)NC(C(C)C(=O)O)C(=O)NC(CC(=O)O)C(=O)NCC(=O)NC(CC(=O)O)C(=O)NCC(=O)NC(C(C)N(Cc2ccc(O)cc2)Cc2ccc(O)cc2)C(=O)NC(C(C)C)C(=O)N2CCCC2C(=O)NC1C (stereo not drawn) [Compound 267, C15-Amphomycin-9-N,N-di-(p-Hydroxybenzyl)] (Pentadecanoyl-D[ξAbu(βξ-NH2)][Pip][ξAsp(βξ-Me)]DGDG[X35]VP; lactam 2-C; configuration not given here)"
6,1,"CCCCCCCCCCCCCCC(=O)NC(CC(=O)O)C(=O)NC1C(=O)N2CCCCC2C(=O)NC(C(C)C(=O)O)C(=O)NC(CC(=O)O)C(=O)NCC(=O)NC(CC(=O)O)C(=O)NCC(=O)NC(C(C)NC(=O)CN(C)C)C(=O)NC(C(C)C)C(=O)N2CCCC2C(=O)NC1C (stereo not drawn) [Compound 268, C15-Amphomycin-9-(N,N-Dimethylglycine)] (Pentadecanoyl-D[ξAbu(βξ-NH2)][Pip][ξAsp(βξ-Me)]DGDG[X36]VP; lactam 2-C; configuration not given here)"
7,4 to 8,"CCCCCCCCCCS(=O)(=O)NCC(=O)NC(CC(=O)O)C(=O)NC1C(=O)N2CCCCC2C(=O)NC(C(C)C(=O)O)C(=O)NC(CC(=O)O)C(=O)NCC(=O)NC(CC(=O)O)C(=O)NCC(=O)NC(C(C)N)C(=O)NC(C(C)C)C(=O)N2CCCC2C(=O)NC1C (stereo not drawn) [Compound 269, CH3—(CH2)9—SO2-Gly-Amphomycin] (X19-GD[ξAbu(βξ-NH2)][Pip][ξAsp(βξ-Me)]DGDG[ξAbu(3ξ-NH2)]VP; lactam 3-C; configuration not given here)"
8,16 to 32,"CCCCCCCCCCCCCCCCS(=O)(=O)N[C@@H](Cc1ccccc1)C(=O)NC(CC(=O)O)C(=O)NC1C(=O)N2CCCCC2C(=O)NC(C(C)C(=O)O)C(=O)NC(CC(=O)O)C(=O)NCC(=O)NC(CC(=O)O)C(=O)NCC(=O)NC(C(C)N)C(=O)NC(C(C)C)C(=O)N2CCCC2C(=O)NC1C (stereo partly drawn) [Compound 270, CH3—(CH2)15—SO2-Phe-Amphomycin] (Hexadecanesulfonyl-F[ξD][ξAbu(βξ-NH2)][ξPip][ξAsp(βξ-Me)][ξD]G[ξD]G[ξAbu(3ξ-NH2)][ξV][ξP]; lactam 3-C)"
9,0.5 to 1,"CCCCCCCCCCCCCCNC(=O)NC(CC(=O)O)C(=O)NC1C(=O)N2CCCCC2C(=O)NC(C(C)C(=O)O)C(=O)NC(CC(=O)O)C(=O)NCC(=O)NC(CC(=O)O)C(=O)NCC(=O)NC(C(C)NC(=O)CNC(=O)[C@@H](N)CCCCN)C(=O)NC(C(C)C)C(=O)N2CCCC2C(=O)NC1C (stereo partly shown) [Compound 277, CH3—(CH2)13—NH—C(═O)-Amphomycin-9-Gly-Lys]"
10,0.5,"CCCCCCCCCCCCCCNC(=O)NC(CC(=O)O)C(=O)NC1C(=O)N2CCCCC2C(=O)NC(C(C)C(=O)O)C(=O)NC(CC(=O)O)C(=O)NCC(=O)NC(CC(=O)O)C(=O)NCC(=O)NC(C(C)NC(=O)CN)C(=O)NC(C(C)C)C(=O)N2CCCC2C(=O)NC1C (stereo not shown) [Compound 279, CH3—(CH2)13—NH—C(═O)-Amphomycin-9-Gly]"
11,2,"CCCCCCCCCCCCCCCC(=O)Nc1ccc(CC(=O)NC(CC(=O)O)C(=O)NC2C(=O)N3CCCCC3C(=O)NC(C(C)C(=O)O)C(=O)NC(CC(=O)O)C(=O)NCC(=O)NC(CC(=O)O)C(=O)NCC(=O)NC(C(C)N)C(=O)NC(C(C)C)C(=O)N3CCCC3C(=O)NC2C)cc1 (stereo not drawn) [Compound 281, C16-(p-Apa)-Amphomycin] (Palmitoyl-[X1]D[ξAbu(βξ-NH2)][Pip][ξAsp(βξ-Me)]DGDG[ξAbu(3ξ-NH2)]VP; lactam 3-C; configuration not given here)"

# Further lines, the molecule ahead of its results:
row,SMILES,MIC [µg/mL]
1,"CCCCCCCCCCCCCCC(=O)NC(CC(=O)O)C(=O)NC1C(=O)N2CCCCC2C(=O)NC(C(C)C(=O)O)C(=O)NC(CC(=O)O)C(=O)NCC(=O)NC(CC(=O)O)C(=O)NCC(=O)NC(C(C)NC(=O)CCCN(C)C)C(=O)NC(C(C)C)C(=O)N2CCCC2C(=O)NC1C (stereo not drawn) [Compound 242, C15-Amphomycin-9-(N,N′-Dimethyl-GABA)] (Pentadecanoyl-D[ξAbu(βξ-NH2)][Pip][ξAsp(βξ-Me)]DGDG[X38]VP; lactam 2-C; configuration not given here)",1 to 2
2,"CCCCCCCCCCCCCCC(=O)NC(CC(=O)O)C(=O)NC1C(=O)N2CCCCC2C(=O)NC(C(C)C(=O)O)C(=O)NC(CC(=O)O)C(=O)NCC(=O)NC(CC(=O)O)C(=O)NCC(=O)NC(C(C)NC(=O)CNCC)C(=O)NC(C(C)C)C(=O)N2CCCC2C(=O)NC1C (stereo not drawn) [Compound 243, C15-Amphomycin-9-(N-Ethyl-Gly)] (Pentadecanoyl-D[ξAbu(βξ-NH2)][Pip][ξAsp(βξ-Me)]DGDG[X44]VP; lactam 2-C; configuration not given here)",0.5 to 1
3,"CCCCCCCCCCCCCCC(=O)NC(CC(=O)O)C(=O)NC1C(=O)N2CCCCC2C(=O)NC(C(C)C(=O)O)C(=O)NC(CC(=O)O)C(=O)NCC(=O)NC(CC(=O)O)C(=O)NCC(=O)NC(C(C)NC(=O)CNCc2ccccc2)C(=O)NC(C(C)C)C(=O)N2CCCC2C(=O)NC1C (stereo not drawn) [Compound 245, C15-Amphomycin-9-(N-Benzyl-Gly)] (Pentadecanoyl-D[ξAbu(βξ-NH2)][Pip][ξAsp(βξ-Me)]DGDG[X42]VP; lactam 2-C; configuration not given here)",1
4,"CCCCCCCCCCCCCCC(=O)NC(CC(=O)O)C(=O)NC1C(=O)N2CCCCC2C(=O)NC(C(C)C(=O)O)C(=O)NC(CC(=O)O)C(=O)NCC(=O)NC(CC(=O)O)C(=O)NCC(=O)NC(C(C)NC(=O)CCN(CC)CC)C(=O)NC(C(C)C)C(=O)N2CCCC2C(=O)NC1C (stereo not drawn) [Compound 246, C15-Amphomycin-9-(N,N-Diethyl-β-Ala)] (Pentadecanoyl-D[ξAbu(βξ-NH2)][Pip][ξAsp(βξ-Me)]DGDG[X45]VP; lactam 2-C; configuration not given here)",2
5,"CCCCCCCCCCCCCCCCNC(=O)NC(CC(=O)O)C(=O)NC1C(=O)N2CCCCC2C(=O)NC(C(C)C(=O)O)C(=O)NC(CC(=O)O)C(=O)NCC(=O)NC(CC(=O)O)C(=O)NCC(=O)NC(C(C)N)C(=O)NC(C(C)C)C(=O)N2CCCC2C(=O)NC1C (stereo not shown) [Compound 249, CH3—(CH2)15—NH—C(═O)-Amphomycin]",2 to 4
6,"CCCCCCCCNC(=O)NC(CC(=O)O)C(=O)NC1C(=O)N2CCCCC2C(=O)NC(C(C)C(=O)O)C(=O)NC(CC(=O)O)C(=O)NCC(=O)NC(CC(=O)O)C(=O)NCC(=O)NC(C(C)N)C(=O)NC(C(C)C)C(=O)N2CCCC2C(=O)NC1C (stereo not shown) [Compound 252, CH3—(CH2)7—NH—C(═O)-Amphomycin]",32
7,"CCCCCCCCCCCCNC(=O)NCC(=O)NC(CC(=O)O)C(=O)NC1C(=O)N2CCCCC2C(=O)NC(C(C)C(=O)O)C(=O)NC(CC(=O)O)C(=O)NCC(=O)NC(CC(=O)O)C(=O)NCC(=O)NC(C(C)N)C(=O)NC(C(C)C)C(=O)N2CCCC2C(=O)NC1C (stereo not drawn) [Compound 254, CH3—(CH2)11—NH—C(═O)-Gly-Amphomycin] ({NH(CH2)11CH3-CO}-GD[ξAbu(βξ-NH2)][Pip][ξAsp(βξ-Me)]DGDG[ξAbu(3ξ-NH2)]VP; lactam 3-C; configuration not given here)",2 to 4
8,"CCCCCCCC(=O)Nc1ccc(C(=O)NC(CC(=O)O)C(=O)NC2C(=O)N3CCCCC3C(=O)NC(C(C)C(=O)O)C(=O)NC(CC(=O)O)C(=O)NCC(=O)NC(CC(=O)O)C(=O)NCC(=O)NC(C(C)N)C(=O)NC(C(C)C)C(=O)N3CCCC3C(=O)NC2C)cc1 (stereo not shown) [Compound 282, C8-PABA-Amphomycin]",32
9,"CCCCCCCCCC(=O)Nc1ccc(C(=O)NC(CC(=O)O)C(=O)NC2C(=O)N3CCCCC3C(=O)NC(C(C)C(=O)O)C(=O)NC(CC(=O)O)C(=O)NCC(=O)NC(CC(=O)O)C(=O)NCC(=O)NC(C(C)N)C(=O)NC(C(C)C)C(=O)N3CCCC3C(=O)NC2C)cc1 (stereo not shown) [Compound 283, C10-PABA-Amphomycin]",2
10,"CCCCCCCCCCC(=O)Nc1ccc(C(=O)NC(CC(=O)O)C(=O)NC2C(=O)N3CCCCC3C(=O)NC(C(C)C(=O)O)C(=O)NC(CC(=O)O)C(=O)NCC(=O)NC(CC(=O)O)C(=O)NCC(=O)NC(C(C)N)C(=O)NC(C(C)C)C(=O)N3CCCC3C(=O)NC2C)cc1 (stereo not shown) [Compound 284, C11-PABA-Amphomycin]",16
11,"CCCCCCCCCCCCC(=O)Nc1ccc(C(=O)NC(CC(=O)O)C(=O)NC2C(=O)N3CCCCC3C(=O)NC(C(C)C(=O)O)C(=O)NC(CC(=O)O)C(=O)NCC(=O)NC(CC(=O)O)C(=O)NCC(=O)NC(C(C)N)C(=O)NC(C(C)C)C(=O)N3CCCC3C(=O)NC2C)cc1 (stereo not shown) [Compound 285, C13-PABA-Amphomycin]",0.25
